Tests used:
Test in all cases: viability relative to DMSO control (fraction); higher = less drug effect (more viable cells)
Conditions in all cases: 48 h
[1] = system: primary DLBCL patient cells (S076)
Outline: (§1)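 Viability is given as CellTiter-Glo luminescence relative to the median of 16 inner DMSO wells. Fresh or cryopreserved primary mononuclear tumour cells from blood, bone marrow (both Ficoll-isolated) or processed lymph node were plated at 4 × 10^4 cells per well in 384-well plates against five pre-plated compound concentrations, one well each. Incubation lasted 48 h at 37 °C and 5% CO2 in RPMI-1640 with penicillin/streptomycin, L-glutamine and human serum.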

[2] = system: primary AML patient cells (S072)
Outline: as §1

[3] = system: primary AML patient cells (S071)
Outline: as §1

[4] = system: primary AML patient cells (S037)
Outline: as §1

[5] = system: primary T-NHL patient cells (S058)
Outline: as §1

[6] = system: primary MCL patient cells (S041)
Outline: as §1

[7] = system: primary AML patient cells (S025)
Outline: as §1

[8] = system: primary AML patient cells (S019)
Outline: as §1

[9] = system: primary AML patient cells (S091)
Outline: as §1

[10] = system: primary AML patient cells (S002)
Outline: as §1

[11] = system: primary DLBCL patient cells (S082)
Outline: as §1

[12] = system: primary AML patient cells (S089)
Outline: as §1

[13] = system: primary AML patient cells (S055)
Outline: as §1

[14] = system: primary AML patient cells (S009)
Outline: as §1

[15] = system: primary DLBCL patient cells (S049)
Outline: as §1

[16] = system: primary T-PLL patient cells (S008)
Outline: as §1

[17] = system: primary AML patient cells (S079)
Outline: as §1

COc1ccc(C2=N[C@@H](c3ccc(Cl)cc3)[C@@H](c3ccc(Cl)cc3)N2C(=O)N2CCNC(=O)C2)c(OC(C)C)c1 [Nutlin-3a]
viability ([1]; 0.032 µM): 0.907 | viability ([1]; 0.16 µM): 0.909 | viability ([1]; 0.8 µM): 0.934 | viability ([1]; 4 µM): 0.737 | viability ([1]; 20 µM): 0.357 | viability ([2]; 0.032 µM): 1.04 | viability ([2]; 0.16 µM): 0.956 | viability ([2]; 0.8 µM): 0.875 | viability ([2]; 4 µM): 0.78 | viability ([2]; 20 µM): 0.693 | viability ([3]; 0.032 µM): 0.982 | viability ([3]; 0.16 µM): 0.78 | viability ([3]; 0.8 µM): 0.342 | viability ([3]; 4 µM): 0.117 | viability ([3]; 20 µM): 0.0641 | viability ([4]; 0.032 µM): 0.982 | viability ([4]; 0.16 µM): 0.974 | viability ([4]; 0.8 µM): 0.964 | viability ([4]; 4 µM): 0.742 | viability ([4]; 20 µM): 0.421 | viability ([5]; 0.032 µM): 0.946 | viability ([5]; 0.16 µM): 0.939 | viability ([5]; 0.8 µM): 0.941 | viability ([5]; 4 µM): 0.634 | viability ([5]; 20 µM): 0.18 | viability ([6]; 0.032 µM): 0.988 | viability ([6]; 0.16 µM): 0.976 | viability ([6]; 0.8 µM): 0.921 | viability ([6]; 4 µM): 0.717 | viability ([6]; 20 µM): 0.34 | viability ([7]; 0.032 µM): 0.961 | viability ([7]; 0.16 µM): 0.947 | viability ([7]; 0.8 µM): 0.788 | viability ([7]; 4 µM): 0.346 | viability ([7]; 20 µM): 0.0996 | viability ([8]; 0.032 µM): 1.13 | viability ([8]; 0.16 µM): 1.03 | viability ([8]; 0.8 µM): 1.08 | viability ([8]; 4 µM): 0.546 | viability ([8]; 20 µM): 0.259 | viability ([9]; 0.032 µM): 0.988 | viability ([9]; 0.16 µM): 0.84 | viability ([9]; 0.8 µM): 0.62 | viability ([9]; 4 µM): 0.404 | viability ([9]; 20 µM): 0.365 | viability ([10]; 0.032 µM): 0.891 | viability ([10]; 0.16 µM): 0.91 | viability ([10]; 0.8 µM): 0.726 | viability ([10]; 4 µM): 0.401 | viability ([10]; 20 µM): 0.268 | viability ([11]; 0.032 µM): 1.07 | viability ([11]; 0.16 µM): 1.02 | viability ([11]; 0.8 µM): 1.1 | viability ([11]; 4 µM): 1.04 | viability ([11]; 20 µM): 1.12 | viability ([12]; 0.032 µM): 1.07 | viability ([12]; 0.16 µM): 1.01 | viability ([12]; 0.8 µM): 1.01 | viability ([12]; 4 µM): 0.802 | viability ([12]; 20 µM): 0.511 | viability ([13]; 0.032 µM): 1.03 | viability ([13]; 0.16 µM): 1.02 | viability ([13]; 0.8 µM): 0.977 | viability ([13]; 4 µM): 0.911 | viability ([13]; 20 µM): 0.306 | viability ([14]; 0.032 µM): 0.875 | viability ([14]; 0.16 µM): 0.89 | viability ([14]; 0.8 µM): 0.744 | viability ([14]; 4 µM): 0.621 | viability ([14]; 20 µM): 0.493 | viability ([15]; 0.032 µM): 1.1 | viability ([15]; 0.16 µM): 0.987 | viability ([15]; 0.8 µM): 1.01 | viability ([15]; 4 µM): 1.04 | viability ([15]; 20 µM): 0.835 | viability ([16]; 0.032 µM): 1 | viability ([16]; 0.16 µM): 0.972 | viability ([16]; 0.8 µM): 0.963 | viability ([16]; 4 µM): 0.583 | viability ([16]; 20 µM): 0.205 | viability ([17]; 0.032 µM): 1.02 | viability ([17]; 0.16 µM): 1.01 | viability ([17]; 0.8 µM): 0.972 | viability ([17]; 4 µM): 0.868 | viability ([17]; 20 µM): 0.61

Source: the supplement of paper PMC10733146
